Patent US20060105329A1, “Gene panel participating in liver regeneration” (priority 2001, published 2006)
Values joined by “and” are separate entries in the source; they are usually repeats but may differ in a detail not shown here. Equal values may be shown once.

Key:
[1] = target: T1, ATA2 (Rattus norvegicus, UniProt Q9JHE5); details: Ala transport activity of ATA2 inhibited by treatment with MeAIB; Freeman T L et al., Hepatology 1999; cited from earlier work
T1 sequence (Q9JHE5 1-504): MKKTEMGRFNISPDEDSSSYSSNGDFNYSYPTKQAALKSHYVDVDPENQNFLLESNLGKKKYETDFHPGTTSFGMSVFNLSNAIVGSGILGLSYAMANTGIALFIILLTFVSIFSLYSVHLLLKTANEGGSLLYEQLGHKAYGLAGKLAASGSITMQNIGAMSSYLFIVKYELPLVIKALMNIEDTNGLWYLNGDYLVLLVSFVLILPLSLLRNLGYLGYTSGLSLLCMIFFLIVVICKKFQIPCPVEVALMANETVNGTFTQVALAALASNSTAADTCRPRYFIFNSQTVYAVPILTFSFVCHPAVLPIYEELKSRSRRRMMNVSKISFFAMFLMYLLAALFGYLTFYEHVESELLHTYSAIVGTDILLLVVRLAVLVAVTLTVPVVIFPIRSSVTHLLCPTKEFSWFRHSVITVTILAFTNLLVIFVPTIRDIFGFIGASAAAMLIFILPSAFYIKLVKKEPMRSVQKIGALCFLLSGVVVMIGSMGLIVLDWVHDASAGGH

[2] = test system: liver proliferating cell nucleus antigen (PCNA); experiment: PCNA labeling index in liver of partially hepatectomized rats administered L-alanine; type: in vivo, rat
Description: (§1) L-alanine is known to have effect of accelerating liver regeneration (Maezono K et al., Hepatology 24(5), 1996, Effect of Alanine on D-Galactosamine-Induced Acute Liver Failure in Rats; Japanese Patent Laid-open Publication No. 5-229940). Therefore, rats were subjected to partial hepatectomy and orally administered with L-alanine at 18 and 21 hours after the hepatectomy, and then gene expressions at 24 hours after the hepatectomy were examined.
(§2) Five 6 week-old F344 male rats (120 g) were preliminarily fed for 6 days by giving feed CRF-1 (Oriental Yeast) and water and then divided into 2 groups (Group 1 and Group 2) each consisting of rats with the same body weight. At 24 hours before dissection, 70% partial hepatectomy was performed by the method by Higgins-Anderson (Higgins, G M and Anderson, R M, Arch. Pathol. 12, 186-191, 1931). On the day of autopsy, the rats were starved for 6 hours before dissection. At 6 and 3 hours before dissection, 2 g/10 ml/kg of L-alanine was orally administered as an aqueous solution containing 0.3% aqueous carboxymethylcellulose (CMC).
After the rats were killed by bleeding under anesthesia, the dissection was performed. Liver was extracted, weighed, cryopreserved, and then subjected to the mRNA expression measurement by the ATAC-PCR method. Further, liver samples were prepared to measure the liver proliferating cell nucleus antigen (PCNA) levels.
Further, the livers of rats administered with L-alanine were stained by using anti-PCNA antibodies (antibodies directed to proliferating cell nuclear antigen (PCNA), a replication factor that accelerates activity of DNA polymerase ä), and the PCNA labeling index was measured by the method of Tanaka et al. (Tanaka et al., Byori to Rinsho, 9 (6): 791-798, 1991).
Due to the L-alanine administration, the PCNA labeling index in the livers elevated as compared with the livers of the non-administered rats (Table 2). In Table 2, Ala+represents the L-alanine-administered group, and Ala-represents the L-alanine non-administered group. Thus, hepatocytes proliferation accelerating effect due to the L-alanine administration was observed.

[3] = test system: amino acid transporter system A (ATA2); experiment: ATAC-PCR gene expression in liver of partially hepatectomized rats administered L-alanine, gene No. 5; type: in vivo, rat
Description: as §1
as §2, with “At 6 and 3 hours before dissection, 2 g/10 ml/kg of L-alanine was orally administered as an aqueous solution containing 0.3% aqueous carboxymethylcellulose (CMC).” left out
(§3) Gene expressions in rat liver in each group were measured by ATAC-PCR. […] In ATAC-PCR, among the genes in the gene panel, 117 types of which expression could be measured by ATAC-PCR using the restriction enzyme MboI were measured (those except for Nos. 12, 49, 52, 55, 58, 59, 61, 69, 73, 77, 83, 90, 93, 101, 102, 108, 130, 134, 135 and 136 mentioned in Table 1).
(§4) Further, the gene expressions in Groups 1 and 2 were measured by ATAC-PCR for the genes of the gene panel and compared. […]

[4] = test system: high mobility group protein 2; experiment: ATAC-PCR gene expression in liver of partially hepatectomized rats administered L-alanine, gene No. 17; type: in vivo, rat
Description: as §1
as §2, with “At 6 and 3 hours before dissection, 2 g/10 ml/kg of L-alanine was orally administered as an aqueous solution containing 0.3% aqueous carboxymethylcellulose (CMC).” left out
as §3, §4

[5] = test system: nuclear RNA helicase; experiment: ATAC-PCR gene expression in liver of partially hepatectomized rats administered L-alanine, gene No. 36; type: in vivo, rat
Description: as §1
as §2, with “At 6 and 3 hours before dissection, 2 g/10 ml/kg of L-alanine was orally administered as an aqueous solution containing 0.3% aqueous carboxymethylcellulose (CMC).” left out
as §3, §4

[6] = test system: liver nuclear protein p47; experiment: ATAC-PCR gene expression in liver of partially hepatectomized rats administered L-alanine, gene No. 46; type: in vivo, rat
Description: as §1
as §2, with “At 6 and 3 hours before dissection, 2 g/10 ml/kg of L-alanine was orally administered as an aqueous solution containing 0.3% aqueous carboxymethylcellulose (CMC).” left out
as §3, §4

[7] = test system: leukemia-associated cytosolic phosphoprotein stathmin; experiment: ATAC-PCR gene expression in liver of partially hepatectomized rats administered L-alanine, gene No. 67; type: in vivo, rat
Description: as §1
as §2, with “At 6 and 3 hours before dissection, 2 g/10 ml/kg of L-alanine was orally administered as an aqueous solution containing 0.3% aqueous carboxymethylcellulose (CMC).” left out
as §3, §4

[8] = test system: deoxy-UTPase (dUTPase); experiment: ATAC-PCR gene expression in liver of partially hepatectomized rats administered L-alanine, gene No. 68; type: in vivo, rat
Description: as §1
as §2, with “At 6 and 3 hours before dissection, 2 g/10 ml/kg of L-alanine was orally administered as an aqueous solution containing 0.3% aqueous carboxymethylcellulose (CMC).” left out
as §3, §4

[9] = test system: gene No. 117 in the gene panel; experiment: ATAC-PCR gene expression in liver of partially hepatectomized rats administered L-alanine, gene No. 117; type: in vivo, rat
Description: as §1
as §2, with “At 6 and 3 hours before dissection, 2 g/10 ml/kg of L-alanine was orally administered as an aqueous solution containing 0.3% aqueous carboxymethylcellulose (CMC).” left out
as §3, §4

[10] = test system: rat genes involved in L-alanine metabolism; experiment: Expression analysis of genes involved in L-alanine metabolism by Taqman PCR (SYBR Green) with L-alanine administration during liver regeneration; type: in vivo; details: L-alanine 2 g/10 ml/kg BW orally 18 and 21 hr after 70% partial hepatectomy vs 0.3% CMC control, liver at 24 hr, values only in FIGS. 2 to 4
Description: Expression changes were examined with L-alanine administration during liver regeneration regarding 59 types of rat genes involved in L-alanine metabolism extracted in Example 2.
Five 6 week-old F344 male rats (120 g) were fed for 6 days by giving feed CRF-1 (Oriental Yeast) and water and then divided into 2 groups (Group 1 and Group 2) each consisting of rats with the same body weight. At 24 hours before dissection, 70% partial hepatectomy (left lobe and intermediate lobe) was performed by the method of Higgins-Anderson (Higgins, G M and Anderson, R M, Arch. Pathol. 12, 186-191, 1931). On the day of autopsy, the rats were starved for 6 hours before the dissection. At 18 and 21 hours after the partial hepatectomy, 2 g/10 ml/kg BW of L-alanine was orally administered as an aqueous solution containing 0.3% carboxymethylcellulose (Group 1), and only 0.3% carboxymethylcellulose was orally administered as a control (Group 2).
Dissection was performed at 24 hours after the partial hepatectomy. After the rats were killed by bleeding under anesthesia, livers were extracted, weighed, cryopreserved and then subjected to the mRNA expression measurement by the Taqman PCR (SYBR Green) method. […]
All the Taqman PCR (SYBR Green) reactions were performed in duplicate, and the cycle threshold (CT) was calculated. […]

[11] = test system: liver regeneration; details: Maezono K et al., Hepatology 24(5), 1996; JP 5-229940; cited from earlier work
[12] = individual rats 2-1, 2-2 (Group 2, taken as Ala+), L-alanine 2 g/10 ml/kg orally 18 and 21 hr after 70% partial hepatectomy, liver at 24 hr
[13] = liver 24 hr after hepatectomy with L-alanine, ratio to gene panel expression at 0 hour
[14] = ATAC-PCR, liver 24 hr after hepatectomy, L-alanine-administered vs non-administered group

CNC(C)(C)C(=O)O [MeAIB, alpha-(methylamino)isobutyric acid]
uptake of [3H]thymidine into DNA [1]: decreased

C[C@H](N)C(=O)O [L-alanine]
PCNA labeling index in the livers as compared with non-administered rats ([2]; L-alanine orally 18 and 21 hr after partial hepatectomy, liver at 24 hr): elevated
PCNA Labeling Index (%), Mean ([2]; group mean of rats 2-1, 2-2 (taken as Ala+), non-administered group mean 0.6%, liver 24 hr after hepatectomy): 64.7%
PCNA Labeling Index (%) [2, 12]: 65.5% and 64.0%
PCNA Negative cells [2, 12]: 247 and 240
PCNA positive cells [2, 12]: 468 and 426
Ala+, 24 hr/Ala-, 24 hr expression ratio, gene No. 5 ([3]; 24 h): 4.8
Ala+ 24 hr relative expression value based on expression before hepatectomy, gene No. 5 [3, 13]: 4.8
Ala+, 24 hr/Ala-, 24 hr expression ratio, gene No. 17 [4, 14]: 5.5
Ala+ 24 hr relative expression value based on expression before hepatectomy, gene No. 17 [4, 13]: 228.3
Ala+, 24 hr/Ala-, 24 hr expression ratio, gene No. 36 [5, 14]: 4.6
Ala+ 24 hr relative expression value based on expression before hepatectomy, gene No. 36 [5, 13]: 25.8
Ala+, 24 hr/Ala-, 24 hr expression ratio, gene No. 46 [6, 14]: 4.4
Ala+ 24 hr relative expression value based on expression before hepatectomy, gene No. 46 [6, 13]: 11.4
Ala+, 24 hr/Ala-, 24 hr expression ratio, gene No. 67 [7, 14]: 4.2
Ala+ 24 hr relative expression value based on expression before hepatectomy, gene No. 67 [7, 13]: 25.6
Ala+, 24 hr/Ala-, 24 hr expression ratio, gene No. 68 [8, 14]: 3.5
Ala+ 24 hr relative expression value based on expression before hepatectomy, gene No. 68 [8, 13]: 24.9
Ala+, 24 hr/Ala-, 24 hr expression ratio, gene No. 117 [9, 14]: 3.2
Ala+ 24 hr relative expression value based on expression before hepatectomy, gene No. 117 [9, 13]: 0.6
Expression level of genes involved in L-alanine metabolism (genes of Table 7 and Nos. 139, 140, 151) [10]: changes in expression level due to the L-alanine administration were observed
effect on liver regeneration [11]: accelerate liver regeneration
